Structures are written as SMILES.

From US20240391862A1, “(1,4,5-TRISUBSTITUTED-1H-PYRAZOL-3-YL)OXY-2-ALKOXY ALKYL ACIDS AND THEIR DERIVATIVES, THEIR SALTS AND THEIR USE AS HERBICIDAL AGENTS” (Bayer AKtiengesellschaft, priority 2021, published 2024) come the findings set out here.

One test deals with MATIN. Description: Post-emergence herbicidal effect, greenhouse pot test. In kind it is in vivo, Tripleurospermum inodorum. The method, boiled down:
(§1)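 Visual % activity scored roughly 3 weeks post-spray against untreated plants, where 100% means death and 0% equals control. Plants were treated at the one-leaf stage, 2 to 3 weeks after sowing in sandy loam, at 20 to 320 g/ha.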

The subject of a further test is ABUTH. The description is as above. The format is in vivo, Abutilon theophrasti. The following applies: visual rating about 3 weeks after treatment. The method in brief:
as §1

A further test relates to POLCO. The test is described as above. In kind it is in vivo, Fallopia convolvulus. The following applies: for pest or weed control at 80 g/ha / pest or weed control at 320 g/ha: Fallopia convolvulus, 504 h, read-out: Post-emergence effect against POLCO in %. The method, boiled down:
as §1

For the next test, the system named is VERPE. The test is described as above. In kind it is in vivo, Veronica persica. The method, boiled down: as §1
A further test has as its system DIGSA. Described as above. In kind it is in vivo, Digitaria sanguinalis. The following applies: 320 g/ha, visual rating about 3 weeks after treatment; for pest or weed control at 320 g/ha: Digitaria sanguinalis, 504 h, read-out: Post-emergence effect against DIGSA. The method in brief: as §1
For the next test, the system named is ALOMY. The test is described as above. In kind it is in vivo, Alopecurus myosuroides. The following applies: 320 g/ha, visual rating about 3 weeks after treatment. The method in brief:
as §1

Another test relates to AVEFA. The description is as above. The format is in vivo, Avena fatua. The note with it: visual rating about 3 weeks after treatment; for pest or weed control at 320 g/ha: Avena fatua, 504 h, read-out: Post-emergence effect against AVEFA. The method, boiled down: as §1
Another test concerns PHBPU. The description is as above. In kind it is in vivo, Ipomoea purpurea. The following applies: for pest or weed control at 80 g/ha / pest or weed control at 320 g/ha: Ipomoea purpurea, 504 h, read-out: Post-emergence effect against PHBPU in %. The method, boiled down: as §1
The next test deals with SETVI. The test is described as above. The format is in vivo, Setaria viridis. The method in brief:
as §1

The subject of the next test is ECHCG. The description is as above. In kind it is in vivo, Echinochloa crus-galli. The method, boiled down:
as §1

The next test concerns AMARE. The test is described as above. In kind it is in vivo, Amaranthus retroflexus. The note with it: visual rating about 3 weeks after treatment. The method, boiled down:
as §1

In another test the test system is VIOTR. Described as above. The format is in vivo, Viola tricolor. The following applies: for pest or weed control at 80 g/ha / pest or weed control at 320 g/ha: Viola tricolor, 504 h, read-out: Post-emergence effect against VIOTR in %. The method in brief:
as §1

In a further test the test system is TRZAS. Description: Post-emergence herbicidal effect and crop plant compatibility, greenhouse pot test. The note with it: 20 g/ha, one-leaf stage, rated visually after about 3 weeks vs untreated controls; for percent crop injury (phytotoxicity) to wheat, post-emergence at 20 g/ha: Triticum aestivum, 504 h, read-out: Post-emergence effect at 20 g/ha against TRZAS in %. In kind it is in vivo, Triticum aestivum. The method in brief: (§2)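 Sandy loam pots, greenhouse. One-leaf stage (2–3 wk after sowing) foliar spray; WP/EC in water + 0.5% additive, 600 l/ha; 20–320 g/ha. Visual score ~3 wk, 0–100% vs untreated.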

Another test has as its system LOLRI. Description: Post-emergence herbicidal effect, greenhouse pot test. In kind it is in vivo, Lolium rigidum. The following applies: for pest or weed control at 320 g/ha: Lolium rigidum, 504 h, read-out: Post-emergence effect against LOLRI in %. The method in brief: as §1
The subject of the next test is ZEAMX. Description: Post-emergence herbicidal effect and crop plant compatibility, greenhouse pot test. The note with it: Zea mays, 504 h, one-leaf stage, rated visually after about 3 weeks vs untreated controls; for plant injury at 20 g/ha: read-out: Post-emergence effect at 20 g/ha against ZEAMX in %. The format is in vivo, Zea mays. The method in brief: as §2
In the next test the test system is KCHSC. Description: Post-emergence herbicidal effect, greenhouse pot test. In kind it is in vivo. The following applies: 504 h, read-out: Post-emergence effect against KCHSC in %. The method in brief: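 Greenhouse plants in sandy loam, sprayed post-emergence at the one-leaf stage (2–3 weeks after sowing) with WP or EC formulations in water plus 0.5% additive at 600 l/ha. Rates 20 to 320 g/ha. Activity rated visually after about 3 weeks against untreated controls (0% like control, 100% dead).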

The mark [1] stands for this setting: Abutilon theophrasti, 504 h, 320 g/ha, read-out: Post-emergence effect against ABUTH.
Where [2] appears, read: Veronica persica, 504 h, 80 g/ha, read-out: Post-emergence effect against VERPE in %.
Setting [3] is: Veronica persica, 504 h, 320 g/ha, read-out: Post-emergence effect against VERPE in %.
[4] abbreviates: Echinochloa crus-galli, 504 h, 320 g/ha, read-out: Post-emergence effect against ECHCG in %.
Setting [5] is: Amaranthus retroflexus, 504 h, 320 g/ha, read-out: Post-emergence effect against AMARE.

On to `COC(=O)CCOC(=O)C(OC)Oc1nn(-c2cc(F)ccc2F)c(-c2cncc(F)c2)c1C1CC1` (single isomer, unassigned) [Example I-78], for which the “Post-emergence effect against MATIN in %” value with MATIN (20 g/ha) is 80%; in the test on MATIN (80 g/ha) it was 90%; in the test with MATIN (320 g/ha), 90%. For the same molecule, the “Post-emergence effect against ABUTH” value with ABUTH (20 g/ha), with ABUTH (80 g/ha) and with ABUTH (320 g/ha) was 80% throughout. Besides, the “Post-emergence effect against POLCO in %” value in the test with POLCO (80 g/ha) and with POLCO (320 g/ha) was 90% in each case. Besides, the “Post-emergence effect against VERPE in %” value is 80% with VERPE (20 g/ha), 90% with VERPE (80 g/ha) and 90% in the test on VERPE (320 g/ha). For the same molecule, the “Post-emergence effect against DIGSA” value with DIGSA worked out at 80%. Moreover, in the test with ALOMY, the “Post-emergence effect against ALOMY” value worked out at 90%. Also, the “Post-emergence effect against AVEFA” value in the test on AVEFA (80 g/ha) and in the test on AVEFA (320 g/ha) was 90% in each case. Further, the “Post-emergence effect against PHBPU in %” value stood at 80% in the test with PHBPU (20 g/ha), 90% with PHBPU (80 g/ha) and 90% in the test on PHBPU (320 g/ha). Also, the “Post-emergence effect against SETVI in %” value in the test on SETVI (80 g/ha) and in the test with SETVI (320 g/ha) was 90% each time. In addition, in the test on ECHCG (20 g/ha, visual rating about 3 weeks after treatment), the “Post-emergence effect against ECHCG” value came to 90%. Also, the “Post-emergence effect against ECHCG in %” value in the test on ECHCG (80 g/ha) and in the test on ECHCG (320 g/ha) was 90% throughout. Further, the “Post-emergence effect against AMARE” value in the test with AMARE (80 g/ha) and in the test on AMARE (320 g/ha) was 90% each time. In addition, the entries for the “Post-emergence effect against VIOTR in %” value with VIOTR (20 g/ha), in the test on VIOTR (80 g/ha) and in the test with VIOTR (320 g/ha) were 80%, 90% and 90%, respectively. Also, in the test on TRZAS, the “Post-emergence effect at 20 g/ha against TRZAS in %” value was 0%. The “Post-emergence effect against LOLRI in %” value with LOLRI (80 g/ha) and in the test on LOLRI (320 g/ha) was 90% each time.

As for `COC(=O)C(OC)Oc1nn(-c2ncccc2F)c(-c2ccc(F)nc2)c1Cl` (stereo not drawn) [Example I-38], the pest or weed control at 320 g/ha in the test with ABUTH (setting [1]) was found to be 80%; with POLCO (320 g/ha) it was 90%; in the test with VERPE (setting [3]) it was 100%; in the test with DIGSA, 90%; in the test with ALOMY (Alopecurus myosuroides, 504 h, read-out: Post-emergence effect against ALOMY), 100%; with AVEFA (320 g/ha) it was 90%. Besides, the pest or weed control at 320 g/ha was found to be 90% with PHBPU (320 g/ha); 90% with SETVI (Setaria viridis, 504 h, 320 g/ha, read-out: Post-emergence effect against SETVI in %); 100% in the test with ECHCG (setting [4]); 90% in the test on AMARE (setting [5]); 90% with VIOTR (320 g/ha); 100% with LOLRI (320 g/ha). For the same molecule, the pest or weed control at 80 g/ha amounted to 90% in the test with POLCO (80 g/ha); 80% with VERPE (setting [2]); 90% in the test on PHBPU (80 g/ha); 90% in the test with AMARE (Amaranthus retroflexus, 504 h, 80 g/ha, read-out: Post-emergence effect against AMARE); 80% with VIOTR (80 g/ha). Further, in the test with VERPE (Veronica persica, 504 h, 20 g/ha, read-out: Post-emergence effect against VERPE in %), the pest or weed control at 20 g/ha was 80%. Besides, the plant injury at 20 g/ha in the test with ZEAMX amounted to 0%. Besides, the percent crop injury (phytotoxicity) to wheat, post-emergence at 20 g/ha with TRZAS came out at 0%.

Turning to `CCOC(=O)C(OC)Oc1nn(-c2cnccn2)c(-c2ccc(F)nc2)c1Br` (stereo not drawn) [Example I-47], the pest or weed control at 80 g/ha with ABUTH (Abutilon theophrasti, 504 h, 80 g/ha, read-out: Post-emergence effect against ABUTH) is 80%; in the test with KCHSC (80 g/ha) it was 90%; in the test with POLCO (80 g/ha), 80%; with VERPE (setting [2]) it was 80%; in the test on PHBPU (80 g/ha), 80%; in the test with ECHCG (Echinochloa crus-galli, 504 h, 80 g/ha, read-out: Post-emergence effect against ECHCG in %), 90%. Moreover, the pest or weed control at 80 g/ha in the test with VIOTR (80 g/ha) worked out at 80%. Moreover, the pest or weed control at 320 g/ha in the test on ABUTH (setting [1]) amounted to 90%; in the test with KCHSC (320 g/ha), 90%; in the test with POLCO (320 g/ha) it was 80%; with VERPE (setting [3]) it was 90%; with DIGSA, 80%; in the test with AVEFA (320 g/ha) it was 80%. For the same molecule, the pest or weed control at 320 g/ha in the test with PHBPU (320 g/ha) worked out at 90%; with ECHCG (setting [4]) it was 90%; with AMARE (setting [5]) it was 80%; in the test with VIOTR (320 g/ha), 90%; with LOLRI (320 g/ha) it was 90%. In addition, the plant injury at 20 g/ha with ZEAMX was 0%. For the same molecule, the plant injury at 80 g/ha in the test on ZEAMX (80 g/ha, read-out: Post-emergence effect at 80 g/ha against ZEAMX in %) stood at 0%. The percent crop injury (phytotoxicity) to wheat, post-emergence at 20 g/ha in the test with TRZAS turned out to be 0%.
